# Data as given in ChEMBL document CHEMBL1909046, “DrugMatrix in vitro pharmacology data”.
# Experiments:
# [1] = molecular target: Mitogen-activated protein kinase 14 (Homo sapiens, UniProt Q16539); set-up: species or system Escherichia coli;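 further: inhibition of p38alpha enzyme activity in a biochemical kinase assay, with myelin basic protein serving as substrate; in other assays of this panel Not Active means under 50% inhibition at 10 µM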
# Glucocorticoid receptor = molecular target: T1, Glucocorticoid receptor (Homo sapiens, UniProt P04150); settings: hela s3; further: in other assays of this panel Not Active means under 50% inhibition at 10 µM
# T1 sequence (P04150 whole entry): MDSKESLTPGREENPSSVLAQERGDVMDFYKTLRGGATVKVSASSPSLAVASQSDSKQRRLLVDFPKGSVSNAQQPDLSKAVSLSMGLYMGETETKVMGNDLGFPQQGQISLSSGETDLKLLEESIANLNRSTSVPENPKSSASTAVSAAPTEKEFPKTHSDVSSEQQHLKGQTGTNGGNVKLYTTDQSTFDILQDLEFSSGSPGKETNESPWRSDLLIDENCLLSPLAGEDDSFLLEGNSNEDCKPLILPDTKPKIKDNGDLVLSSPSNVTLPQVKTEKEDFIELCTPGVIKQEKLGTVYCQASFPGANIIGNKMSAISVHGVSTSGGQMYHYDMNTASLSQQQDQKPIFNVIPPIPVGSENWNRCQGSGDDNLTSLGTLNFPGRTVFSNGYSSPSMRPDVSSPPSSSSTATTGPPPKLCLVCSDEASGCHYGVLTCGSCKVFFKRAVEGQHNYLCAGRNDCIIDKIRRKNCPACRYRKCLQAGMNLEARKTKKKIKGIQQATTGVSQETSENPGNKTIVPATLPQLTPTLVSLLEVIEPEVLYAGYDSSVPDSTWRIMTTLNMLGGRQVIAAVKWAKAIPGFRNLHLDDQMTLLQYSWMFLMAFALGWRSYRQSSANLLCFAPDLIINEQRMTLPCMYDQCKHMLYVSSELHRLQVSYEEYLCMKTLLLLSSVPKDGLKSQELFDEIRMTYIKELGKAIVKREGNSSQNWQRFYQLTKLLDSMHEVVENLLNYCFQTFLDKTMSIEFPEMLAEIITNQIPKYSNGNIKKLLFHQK
# B2 bradykinin receptor = molecular target: T2, B2 bradykinin receptor (Homo sapiens, UniProt P30411); type: cell membranes, Membrane; settings: chem-1; further: in other assays of this panel Not Active means under 50% inhibition at 10 µM
# T2 sequence (P30411 whole entry): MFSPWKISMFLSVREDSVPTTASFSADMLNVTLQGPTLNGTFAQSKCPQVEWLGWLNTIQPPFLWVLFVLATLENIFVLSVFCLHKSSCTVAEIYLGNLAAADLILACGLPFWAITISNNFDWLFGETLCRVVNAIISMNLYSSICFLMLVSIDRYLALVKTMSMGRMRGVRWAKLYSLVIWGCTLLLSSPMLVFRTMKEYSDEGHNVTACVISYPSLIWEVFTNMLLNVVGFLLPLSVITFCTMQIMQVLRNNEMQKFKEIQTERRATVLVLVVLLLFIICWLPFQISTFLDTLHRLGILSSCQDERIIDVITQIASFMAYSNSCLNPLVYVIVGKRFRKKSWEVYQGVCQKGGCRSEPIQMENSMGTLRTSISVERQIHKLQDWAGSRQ
# [2] = molecular target: T3, Alpha-1D adrenergic receptor (Homo sapiens, UniProt P25100); type: cell membranes, HEK293, Membrane; further: in other assays of this panel Not Active means under 50% inhibition at 10 µM
# T3 sequence (P25100 whole entry): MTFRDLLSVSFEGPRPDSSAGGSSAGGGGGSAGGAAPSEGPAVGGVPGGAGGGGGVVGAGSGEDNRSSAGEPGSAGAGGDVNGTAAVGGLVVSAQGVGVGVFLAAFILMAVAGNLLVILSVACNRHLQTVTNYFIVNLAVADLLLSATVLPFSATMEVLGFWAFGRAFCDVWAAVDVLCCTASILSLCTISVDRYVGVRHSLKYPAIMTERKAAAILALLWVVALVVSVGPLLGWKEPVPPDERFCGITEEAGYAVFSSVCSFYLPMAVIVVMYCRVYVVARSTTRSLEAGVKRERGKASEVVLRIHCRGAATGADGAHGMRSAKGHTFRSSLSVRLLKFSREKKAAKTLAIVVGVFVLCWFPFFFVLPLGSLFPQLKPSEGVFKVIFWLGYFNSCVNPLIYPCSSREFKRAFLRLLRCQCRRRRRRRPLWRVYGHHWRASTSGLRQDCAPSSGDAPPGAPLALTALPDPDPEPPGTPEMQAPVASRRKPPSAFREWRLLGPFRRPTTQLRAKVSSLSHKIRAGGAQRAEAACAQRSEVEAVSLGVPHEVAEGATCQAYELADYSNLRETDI
# [3] = DRUGMATRIX: Tumor Necrosis Factor (TNF), Non-Selective radioligand binding (ligand: [125I] TNF-alpha); type: cell membranes, Membrane; settings: u-937; Not Active = under 50% inhibition at 10 µM
# [4] = DRUGMATRIX: Nicotinic Acetylcholine radioligand binding (ligand: [125I] Epibatidine); type: cell membranes, Membrane; settings: imr-32; Not Active = under 50% inhibition at 10 µM
# Cathepsin G = molecular target: T4, Cathepsin G (Homo sapiens, UniProt P08311); type: tissue-based; settings: neutrophil
# T4 sequence (P08311 whole entry): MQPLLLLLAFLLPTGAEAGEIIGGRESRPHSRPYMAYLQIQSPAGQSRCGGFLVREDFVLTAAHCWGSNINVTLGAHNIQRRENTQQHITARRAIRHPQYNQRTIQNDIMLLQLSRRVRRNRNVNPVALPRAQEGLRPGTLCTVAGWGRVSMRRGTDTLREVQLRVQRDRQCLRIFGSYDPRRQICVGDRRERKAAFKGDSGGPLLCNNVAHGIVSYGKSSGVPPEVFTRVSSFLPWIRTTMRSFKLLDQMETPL
# [5] = DRUGMATRIX: Platelet-Derived Growth Factor (PDGF) radioligand binding (ligand: [125I] PDGF); type: cell-based; settings: nih3t3; Not Active = under 50% inhibition at 10 µM
# Chain of Mitogen-activated protein kinase 14 (Q16539 whole entry): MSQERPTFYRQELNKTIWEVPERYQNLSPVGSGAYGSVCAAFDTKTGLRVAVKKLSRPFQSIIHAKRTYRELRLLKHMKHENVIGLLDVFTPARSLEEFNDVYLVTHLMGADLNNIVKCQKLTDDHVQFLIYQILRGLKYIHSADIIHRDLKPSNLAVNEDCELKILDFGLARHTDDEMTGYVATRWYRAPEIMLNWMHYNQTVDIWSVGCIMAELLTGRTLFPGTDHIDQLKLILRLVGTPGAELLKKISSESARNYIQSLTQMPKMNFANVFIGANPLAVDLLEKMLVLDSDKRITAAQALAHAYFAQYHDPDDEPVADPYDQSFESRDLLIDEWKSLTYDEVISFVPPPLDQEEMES
Compound,IC50 [1],IC50 (Glucocorticoid receptor),IC50 (B2 bradykinin receptor),IC50 ([2]; hek293),IC50 [3],Ki [3],IC50 [4],Ki [4],IC50 (Cathepsin G),IC50 [5],Ki [5],IC50 ([2]; read-out: IC50),Ki ([2]; read-out: Ki)
NCCCNCCSP(=O)(O)O [AMIFOSTINE],Not Active,Not Active,Not Active,Not Active,Not Active,Not Active,Not Active,Not Active,Not Active,Not Active,Not Active,–,–
CN(C)CCC=C1c2ccccc2CCc2ccccc21 [AMITRIPTYLINE],Not Active,Not Active,Not Active,–,Not Active,Not Active,Not Active,Not Active,Not Active,Not Active,Not Active,105 nM,52 nM
CC(=O)Oc1ccccc1C(=O)O [ASPIRIN],Not Active,Not Active,Not Active,Not Active,Not Active,Not Active,Not Active,Not Active,Not Active,Not Active,Not Active,–,–
CC(C)c1c(C(=O)Nc2ccccc2)c(-c2ccccc2)c(-c2ccc(F)cc2)n1CC[C@@H](O)C[C@@H](O)CC(=O)O [ATORVASTATIN],Not Active,Not Active,Not Active,Not Active,Not Active,Not Active,Not Active,Not Active,Not Active,Not Active,Not Active,–,–
CC(=O)OC[C@H]1O[C@@H](n2ncc(=O)[nH]c2=O)[C@H](OC(C)=O)[C@@H]1OC(C)=O [AZARIBINE],Not Active,Not Active,Not Active,Not Active,Not Active,Not Active,Not Active,Not Active,Not Active,Not Active,Not Active,–,–
C[C@H]1[C@H](NC(=O)/C(=N\OC(C)(C)C(=O)O)c2csc(N)n2)C(=O)N1S(=O)(=O)O [AZTREONAM],Not Active,Not Active,Not Active,Not Active,Not Active,Not Active,Not Active,Not Active,Not Active,Not Active,Not Active,–,–
O=C(O)CCNC(=O)c1ccc(/N=N/c2ccc(O)c(C(=O)O)c2)cc1 [BALSALAZIDE],Not Active,Not Active,Not Active,Not Active,Not Active,Not Active,Not Active,Not Active,Not Active,Not Active,Not Active,–,–
COc1cc(OC)c(C(=O)CCCN2CCCC2)c(OC)c1 [BUFLOMEDIL],Not Active,Not Active,Not Active,Not Active,Not Active,Not Active,Not Active,Not Active,Not Active,Not Active,Not Active,–,–
